Laboratory results from patent US11207338B2, “Composition for preventing and treating osteoporosis, comprising dihydrophaseic acid 3′-O-β-D-glucopyranoside isolated from lycium root bark extracts” (DONG WOO DANG CO., LTD, priority 2015, dated 2021).

Experiments:
[1] = system: C3H10T1/2 cells; experiment: Cell proliferation assay (EZ-Cytox, water-soluble tetrazolium salt); type: cell-based, mouse; details: 5 μg/mL compared with 1 and 10 μg/ml
Protocol: (§1) C3H10T1/2 cells which are mouse mesenchymal stem cells and MC3T3-E1 cells which are pre-osteoblasts were cultured in Basal Medium Eagle (BME) medium supplemented with 10% fetal bovine serum, 1 mM sodium pyruvate, 100 units/L penicillin and 100 mg/L streptomycin and α-minimal essential medium (α-MEM) at 37° C. under 5% CO2.
(§2) The D3G fraction layer obtained in Examples 1 and 2 was dissolved in sterilized distilled water and divided into three groups of concentrations of 1 μg/ml, 5 μg/ml and 10 μg/ml, and then added them to C3H10T1/2 cells and MC3T3-E1 cells respectively and further cultured for 48 hours. Cells cultured in the absence of the D3G fraction layer were used as a control.
Cell proliferation assays were performed using a EZ-Cytox Enhanced Cell Viability Assay Kit product with water-soluble tetrazolium salt.
Specifically, C3H10T1/2 cells and MC3T3-E1 cells (3×10^3 cells/well) were inoculated into 96-well plates and cultured in growth medium at 37° C. for 24 hours in 5% CO2, and then the Lycium root bark extracts of three concentrations (1 μg/ml, 5 μg/ml and 10 μg/ml) were added to the cells and cultured for 2 days. […]
(§3) Statistical analysis was performed by student's t-test for the control group without extract treatment and for each treatment group with extract treatment, and expressed as *p<0.05 depending on significance level.

[2] = system: MC3T3-E1 cells; experiment: as above; type: cell-based; details: differentiation induced MC3T3-E1 cells; 5 μg/mL compared with 1 and 10 μg/ml
Protocol: as §1
(§4) In the case of MC3T3-E1 cells, ascorbic acid (50 μg/ml) and β-Glycerophosphate (10 mM), which are the osteoblast differentiation-inducing agents, were added, and then differentiation was induced for 3 days before treatment with the D3G fraction layer.
as §2
Cell proliferation assays were performed using a EZ-Cytox Enhanced Cell Viability Assay Kit product with water-soluble tetrazolium salt. […]
as §3

[3] = system: C3H10T1/2 cells; experiment: Analysis of ALP activity; type: cell-based, mouse
Protocol: as §1, §2
(§5) After culturing the D3G-treated experimental group treated with the three kinds of concentrations (1 μg/ml, 5 μg/ml, 10 μg/ml) and the control group for 48 hours, ALP activity of cells was measured. ALP activity was measured using a ALP Assay Kit.
Specifically, after washing the cells with the physiological saline, the cell lysed with cytolytic agent was treated with p-nitrophenyl phosphate which is a substrate of ALP and then cultured at 37° C. for 1 hour. Thereafter, 0.5N NaOH which is a reaction stop solution was added, and then the absorbance was measured at a wavelength of 405 nm. […]

[4] = system: MC3T3-E1 cells; experiment: Analysis of ALP activity; type: cell-based
Protocol: as §1
In the case of MC3T3-E1 cells, ascorbic acid (50 μg/ml) and β-Glycerophosphate (10 mM), which are the osteoblast differentiation-inducing agents, were added, and then differentiation was induced for 3 days before treatment with the D3G fraction layer. […]
as §5
Specifically, after washing the cells with the physiological saline, the cell lysed with cytolytic agent was treated with p-nitrophenyl phosphate which is a substrate of ALP and then cultured at 37° C. for 1 hour. Thereafter, 0.5N NaOH which is a reaction stop solution was added, and then the absorbance was measured at a wavelength of 405 nm.
The effect of the cell ALP activity of the Lycium root bark extract in C3H10T1/2 cells and differentiation induced MC3T3-E1 cells was analyzed by the method as described above, and the results are shown in FIG. 4. […]

[5] = system: MC3T3-E1 cells; experiment: Analysis of mineralization action (alizarin red S staining); type: cell-based; details: 5 μg/mL, 3 weeks, vs control
Protocol: as §4
The analysis of mineralization action of the cells was performed after incubation of the experimental group treated with 5 μg/ml of the D3G and the control group for 3 weeks. The analysis of mineralization action was performed using the Alizarlin red S staining method.

[6] = system: monocytes isolated from mouse bone marrow; experiment: Osteoclast differentiation (TRAP activity and TRAP staining); type: cell-based; details: mouse monocytes with M-CSF and RANKL; 5 μg/ml; treated vs untreated
Protocol: Osteoclasts was isolated from primary monocytes, which are the […] of osteoclasts from the bone marrow of a 6 week old mouse, and cultured them. After confirming that the osteoclasts isolated from mouse stem cells were monocytes isolated from the bone marrow of the mouse through FACS (FIG. 6a) (monocyte positive marker antibody: CD11b), an experiment was performed. Separated mouse monocytes were treated with 30 ng/ml M-CSF and 50 ng/ml LANKL, which are osteoclast differentiation-inducing agents, and differentiation was induced for 3 days before treatment with D3G fraction layer.
Osteoclasts are derived from stem cells and are responsible for bone resorption that destroys aged bone wherein bone remodeling is maintained through the balanced action of osteogenesis by osteoblasts and bone resorption by osteoclasts. To the monocytes extracted and cultured from the stem cells of the femoral region of the mouse, 30 ng/mL M-CSF and 50 ng/mL RANKL were added together and then cultured for 5 days. Thereafter, the activity of TRAP which is an osteoclast differentiation marker was measured.
After washing the cells with physiological saline, TRAP activity was measured by absorbance at a wavelength of 405 nm using an Acid-Phosphatase Kit, and after staining, the osteoclasts were observed through a microscope.

[7] = system: MC3T3-E1 cells; experiment: Expression level of osteoblast differentiation gene markers (real-time PCR); type: cell-based; details: differentiation-induced MC3T3-E1 cells; 5 μg/ml; relative to Gapdh
Protocol: as §4
The change in the expression levels of mRNAs of osteoblast differentiation gene markers, Alp, Runx2, and Bglap (Osteocalcine) among bone remodeling-related gene markers was confirmed by a quantitative reverse transcription-PCR.
After harvesting the cells, total RNA was isolated using Trizol, and in order to remove genomic DNA, DNase I was reacted at room temperature for 15 minutes and then treated with EDTA to inactivate DNase I.
Thereafter, the reverse transcription reaction was induced by using oligo dT primer as a primer to synthesize cDNA, and then real-time PCR was performed using sequence specific primers of each gene and SYBR Green. The analysis of the expression level was performed by using the relative quantification method for the target gene using the Gapdh gene as a control. The gene-specific primer sequence information for identifying the level of expression of the gene markers used to determine the degree of differentiation of osteoblasts and osteoclasts is shown in Table 1 below.
Expression levels of the three gene markers, Alp, Runx2, and Bglap related to bone remodeling for the D3G in differentiation-induced MC3T3-E1 cells were compared by the method as described above, and the results are shown in FIGS. 7a, 7b, and 7c. Statistical analysis was performed by student's t-test and expressed as *p<0.05 depending on significance level.

[8] = system: mixed culture of MC3T3-E1 pre-osteoblasts and mouse monocytes; experiment: Mixed culture of osteoblast and osteoclast (ALP and TRAP activity); type: cell-based; details: MC3T3-E1 plus monocytes mixed culture; 5 μg/mL
Protocol: In order to assess the maintenance of bone remodeling under the condition closer to the in vivo condition through the balanced action between osteogenesis and bone resorption by osteoblasts and osteoclasts, MC3T3-E1(2×10^4 cells/well), which are pre-osteoblasts, and monocytes (4×10^4 cells/well) obtained by extracting stem cells from the femoral region of the mouse and culturing them were mixed and cultured.
To the mixed culture of osteoblasts and osteoclasts, ascorbic acid (50 μg/ml) and β-glycerophosphate (10 mM) which are osteoblast differentiation-inducing agents were added to induce differentiation for 3 days and then treated with D3G fraction layer. After adding the D3G fraction layer (5 μg/mL) to the mixed culture solution, the activity of ALP which is an osteoblast differentiation marker and the activity of TRAP which is an osteoclast differentiation marker were measured. Statistical analysis was performed by student's t-test and expressed as *p<0.05 and **p<0.01 depending on significance level.

Structure (SMILES): CC(=C/C(=O)O)/C=C/[C@]1(O)[C@]2(C)CO[C@@]1(C)C[C@@H](OC1OC(CO)C(O)C(O)C1O)C2 (stereo partly drawn) [D3G, dihydrophaseic acid 3′-O-β-D-glucopyranoside]
- cell proliferation promoting effect at the optimal concentration [1]: highest
- cell proliferation promoting effect at the optimal concentration [2]: highest
- enhancing effect of cell ALP activity at 5 μg/mL ([3]; 5 μg/mL compared with 1 and 10 μg/ml): best effect
- ALP activity ([3]; 1, 5 and 10 μg/ml, 48 hours, vs control): increase ALP activity
- enhancing effect of cell ALP activity at 5 μg/mL ([4]; MC3T3-E1 cells, 5 μg/mL compared with 1 and 10 μg/ml): best effect
- ALP activity ([4]; differentiation induced MC3T3-E1 cells, 1, 5 and 10 μg/ml, 48 hours, vs control): increase ALP activity
- mineralization (alizarin red S staining) [5]: increase mineralization
- TRAP activity (osteoclast differentiation marker) [6]: no significant change
- TRAP staining of differentiated osteoclast [6]: no significant change
- expression level of Alp mRNA [7]: increased
- expression level of Bglap (Osteocalcin) mRNA [7]: increased
- expression level of Runx2 mRNA [7]: increased
- ALP activity in mixed culture [8]: increase
- TRAP activity in mixed culture [8]: increase
